Laboratory results from paper PMC8800111 (The Journal of Biological Chemistry, 2021).

How the values were obtained:
Assay type in all cases: cell-based
[1] = target: proteins of U3A human fibrosarcoma cells (4462 proteins detected) (Homo sapiens, UniProt O15042); settings: protein U2SURP; U3A cells
[2] = target: proteins of U3A human fibrosarcoma cells (4462 proteins detected) (Homo sapiens, UniProt O60684); settings: protein KPNA6; U3A cells
[3] = target: proteins of U3A human fibrosarcoma cells (4462 proteins detected) (Homo sapiens, UniProt O95801); settings: protein TTC4; soluble abundance after heat, U3A cells
[4] = target: proteins of U3A human fibrosarcoma cells (4462 proteins detected) (Homo sapiens, UniProt P17252); settings: protein PRKCA; U3A cells
[5] = target: proteins of U3A human fibrosarcoma cells (4462 proteins detected) (Homo sapiens, UniProt P23396); settings: protein RPS3; soluble abundance after heat, U3A cells
[6] = target: proteins of U3A human fibrosarcoma cells (4462 proteins detected) (Homo sapiens, UniProt P26006); settings: protein ITGA3; U3A cells
[7] = target: proteins of U3A human fibrosarcoma cells (4462 proteins detected) (Homo sapiens, UniProt P48643); settings: protein CCT5; U3A cells
[8] = target: proteins of U3A human fibrosarcoma cells (4462 proteins detected) (Homo sapiens, UniProt P49756); settings: protein RBM25; U3A cells
[9] = target: proteins of U3A human fibrosarcoma cells (4462 proteins detected) (Homo sapiens, UniProt P52823); settings: protein STC1; U3A, 10 μM, 2 h
[10] = target: proteins of U3A human fibrosarcoma cells (4462 proteins detected) (Homo sapiens, UniProt P62701); settings: protein RPS4X; soluble abundance after heat, U3A cells
[11] = target: proteins of U3A human fibrosarcoma cells (4462 proteins detected) (Homo sapiens, UniProt Q01518); settings: protein CAP1; U3A cells
[12] = target: proteins of U3A human fibrosarcoma cells (4462 proteins detected) (Homo sapiens, UniProt Q15043); settings: protein SLC39A14; soluble abundance after heat, U3A cells
[13] = target: proteins of U3A human fibrosarcoma cells (4462 proteins detected) (Homo sapiens, UniProt Q15599); settings: protein SLC9A3R2, U3A cells
[14] = target: proteins of U3A human fibrosarcoma cells (4462 proteins detected) (Homo sapiens, UniProt Q16740); settings: protein CLPP; soluble abundance after heat, U3A cells
[15] = target: proteins of U3A human fibrosarcoma cells (4462 proteins detected) (Homo sapiens, UniProt Q7L2H7); settings: protein EIF3M; U3A cells
[16] = target: proteins of U3A human fibrosarcoma cells (4462 proteins detected) (Homo sapiens, UniProt Q8IVD9); settings: protein NUDCD3; soluble abundance after heat, U3A cells
[17] = target: proteins of U3A human fibrosarcoma cells (4462 proteins detected) (Homo sapiens, UniProt Q8TDD1); settings: protein DDX54; U3A, 10 μM, 2 h
[18] = target: proteins of U3A human fibrosarcoma cells (4462 proteins detected) (Homo sapiens, UniProt Q8TF74); settings: protein WIPF2, U3A cells
[19] = target: proteins of U3A human fibrosarcoma cells (4462 proteins detected) (Homo sapiens, UniProt Q8WUR7); settings: protein C15orf40, U3A cells
[20] = target: proteins of U3A human fibrosarcoma cells (4462 proteins detected) (Homo sapiens, UniProt Q969Z0); settings: protein TBRG4; U3A cells
[21] = target: proteins of U3A human fibrosarcoma cells (4462 proteins detected) (Homo sapiens, UniProt Q9BSL1); settings: protein UBAC1; soluble abundance after heat, U3A cells
[22] = target: proteins of U3A human fibrosarcoma cells (4462 proteins detected) (Homo sapiens, UniProt Q9NTZ6); settings: protein RBM12; soluble abundance after heat, U3A cells
[23] = target: proteins of U3A human fibrosarcoma cells (4462 proteins detected) (Homo sapiens, UniProt Q9NWT1); settings: protein PAK1IP1; U3A cells
[24] = target: proteins of U3A human fibrosarcoma cells (4462 proteins detected) (Homo sapiens, UniProt Q9P032); settings: protein NDUFAF4; U3A cells
[25] = target: proteins of U3A human fibrosarcoma cells (4462 proteins detected) (Homo sapiens, UniProt Q9UJ41); settings: protein RABGEF1; U3A cells
[26] = target: proteins of U3A human fibrosarcoma cells (4462 proteins detected) (Homo sapiens, UniProt Q9ULX3); settings: protein NOB1; U3A cells
[27] = target: proteins of U3A human fibrosarcoma cells (4462 proteins detected) (Homo sapiens, UniProt Q9Y2K3); settings: protein MYH15; U3A cells
[28] = target: proteins of U3A human fibrosarcoma cells (4462 proteins detected) (Homo sapiens, UniProt Q9Y4X5); settings: protein ARIH1; U3A cells
[29] = target: proteins of U3A human fibrosarcoma cells (4462 proteins detected) (Homo sapiens, UniProt Q9Y5J1); settings: protein UTP18; U3A cells
[30] = target: proteins of U3A human fibrosarcoma cells (4462 proteins detected) (Homo sapiens, UniProt Q9Y6E2); settings: protein BZW2; U3A cells

Sequence of proteins of U3A human fibrosarcoma cells (4462 proteins detected) (Homo sapiens, UniProt O15042) (O15042 whole entry): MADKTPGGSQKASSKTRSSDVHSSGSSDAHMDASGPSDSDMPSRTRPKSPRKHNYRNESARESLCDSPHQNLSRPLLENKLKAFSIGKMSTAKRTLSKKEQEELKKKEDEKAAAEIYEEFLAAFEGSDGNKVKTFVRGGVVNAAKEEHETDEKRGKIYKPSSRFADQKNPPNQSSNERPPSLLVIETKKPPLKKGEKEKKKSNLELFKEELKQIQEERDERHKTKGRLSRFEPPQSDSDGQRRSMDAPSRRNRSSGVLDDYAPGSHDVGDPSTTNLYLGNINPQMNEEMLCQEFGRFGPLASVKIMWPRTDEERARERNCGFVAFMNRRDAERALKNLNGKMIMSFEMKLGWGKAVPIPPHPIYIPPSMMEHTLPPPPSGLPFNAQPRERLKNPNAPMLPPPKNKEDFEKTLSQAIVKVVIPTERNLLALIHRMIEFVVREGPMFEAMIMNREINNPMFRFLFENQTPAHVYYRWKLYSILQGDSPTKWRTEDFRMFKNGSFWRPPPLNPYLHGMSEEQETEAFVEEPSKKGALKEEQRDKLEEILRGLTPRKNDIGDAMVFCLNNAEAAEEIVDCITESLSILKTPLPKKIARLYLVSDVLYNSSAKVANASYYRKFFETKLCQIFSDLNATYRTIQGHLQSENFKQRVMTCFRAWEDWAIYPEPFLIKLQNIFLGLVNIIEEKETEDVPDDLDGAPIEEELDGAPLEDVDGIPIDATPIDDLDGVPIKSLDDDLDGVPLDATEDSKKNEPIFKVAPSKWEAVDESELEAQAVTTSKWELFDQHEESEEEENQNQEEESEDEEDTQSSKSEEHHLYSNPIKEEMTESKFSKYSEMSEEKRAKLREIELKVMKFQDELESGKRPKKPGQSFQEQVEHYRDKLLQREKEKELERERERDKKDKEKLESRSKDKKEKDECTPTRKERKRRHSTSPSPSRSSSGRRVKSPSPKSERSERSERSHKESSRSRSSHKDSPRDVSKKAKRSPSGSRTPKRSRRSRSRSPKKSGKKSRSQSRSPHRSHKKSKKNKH
Sequence of proteins of U3A human fibrosarcoma cells (4462 proteins detected) (Homo sapiens, UniProt Q01518) (Q01518 whole entry): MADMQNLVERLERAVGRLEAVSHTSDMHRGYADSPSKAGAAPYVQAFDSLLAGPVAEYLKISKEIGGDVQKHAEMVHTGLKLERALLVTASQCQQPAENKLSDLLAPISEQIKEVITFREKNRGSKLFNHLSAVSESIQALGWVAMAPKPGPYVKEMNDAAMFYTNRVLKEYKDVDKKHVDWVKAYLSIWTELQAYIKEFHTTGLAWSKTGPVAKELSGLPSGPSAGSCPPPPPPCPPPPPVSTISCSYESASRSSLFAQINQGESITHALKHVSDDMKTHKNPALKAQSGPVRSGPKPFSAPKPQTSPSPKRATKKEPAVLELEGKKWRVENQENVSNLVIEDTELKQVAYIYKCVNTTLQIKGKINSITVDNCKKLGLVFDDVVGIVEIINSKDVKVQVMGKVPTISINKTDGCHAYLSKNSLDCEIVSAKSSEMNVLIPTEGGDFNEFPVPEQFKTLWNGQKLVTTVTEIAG
Sequence of proteins of U3A human fibrosarcoma cells (4462 proteins detected) (Homo sapiens, UniProt O95801) (O95801 whole entry): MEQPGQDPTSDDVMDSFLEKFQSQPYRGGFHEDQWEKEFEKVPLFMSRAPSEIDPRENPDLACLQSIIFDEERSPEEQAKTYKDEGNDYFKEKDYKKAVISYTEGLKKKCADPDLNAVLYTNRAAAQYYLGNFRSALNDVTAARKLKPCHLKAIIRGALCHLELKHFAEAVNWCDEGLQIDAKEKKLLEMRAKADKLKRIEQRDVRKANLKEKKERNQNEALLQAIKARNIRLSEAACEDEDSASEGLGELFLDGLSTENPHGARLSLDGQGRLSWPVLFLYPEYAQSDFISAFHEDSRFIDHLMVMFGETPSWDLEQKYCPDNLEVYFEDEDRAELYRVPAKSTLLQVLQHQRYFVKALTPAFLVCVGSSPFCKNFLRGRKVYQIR
Sequence of proteins of U3A human fibrosarcoma cells (4462 proteins detected) (Homo sapiens, UniProt Q9ULX3) (Q9ULX3 whole entry): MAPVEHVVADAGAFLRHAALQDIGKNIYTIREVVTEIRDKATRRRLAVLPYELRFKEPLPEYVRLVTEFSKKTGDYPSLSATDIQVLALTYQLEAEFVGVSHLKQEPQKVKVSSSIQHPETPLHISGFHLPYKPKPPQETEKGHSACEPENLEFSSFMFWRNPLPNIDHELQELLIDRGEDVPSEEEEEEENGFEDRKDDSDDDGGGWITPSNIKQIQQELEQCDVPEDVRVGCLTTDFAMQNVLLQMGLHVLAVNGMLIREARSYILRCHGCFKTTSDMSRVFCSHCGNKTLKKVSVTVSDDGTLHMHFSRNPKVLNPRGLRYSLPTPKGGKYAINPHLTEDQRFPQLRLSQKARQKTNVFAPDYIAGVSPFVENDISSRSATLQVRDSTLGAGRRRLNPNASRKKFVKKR
Sequence of proteins of U3A human fibrosarcoma cells (4462 proteins detected) (Homo sapiens, UniProt Q8TF74) (Q8TF74 whole entry): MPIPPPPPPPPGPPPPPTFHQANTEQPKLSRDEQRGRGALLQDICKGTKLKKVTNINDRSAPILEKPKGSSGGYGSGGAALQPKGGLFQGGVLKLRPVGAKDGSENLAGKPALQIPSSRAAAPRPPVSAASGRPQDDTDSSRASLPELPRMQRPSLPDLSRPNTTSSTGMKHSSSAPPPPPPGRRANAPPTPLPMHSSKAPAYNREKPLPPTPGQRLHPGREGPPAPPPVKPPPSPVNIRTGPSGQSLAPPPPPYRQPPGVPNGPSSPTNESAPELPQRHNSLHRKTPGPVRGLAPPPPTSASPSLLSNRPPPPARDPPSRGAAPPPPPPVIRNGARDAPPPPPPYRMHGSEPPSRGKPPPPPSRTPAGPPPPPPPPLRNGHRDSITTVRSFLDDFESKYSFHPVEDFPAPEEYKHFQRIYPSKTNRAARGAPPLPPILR
Sequence of proteins of U3A human fibrosarcoma cells (4462 proteins detected) (Homo sapiens, UniProt Q8WUR7) (Q8WUR7 whole entry): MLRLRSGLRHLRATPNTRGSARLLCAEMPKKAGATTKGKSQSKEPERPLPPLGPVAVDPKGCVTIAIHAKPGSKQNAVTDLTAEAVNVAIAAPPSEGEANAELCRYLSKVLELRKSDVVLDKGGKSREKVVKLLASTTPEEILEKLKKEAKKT
Sequence of proteins of U3A human fibrosarcoma cells (4462 proteins detected) (Homo sapiens, UniProt Q9Y4X5) (Q9Y4X5 whole entry): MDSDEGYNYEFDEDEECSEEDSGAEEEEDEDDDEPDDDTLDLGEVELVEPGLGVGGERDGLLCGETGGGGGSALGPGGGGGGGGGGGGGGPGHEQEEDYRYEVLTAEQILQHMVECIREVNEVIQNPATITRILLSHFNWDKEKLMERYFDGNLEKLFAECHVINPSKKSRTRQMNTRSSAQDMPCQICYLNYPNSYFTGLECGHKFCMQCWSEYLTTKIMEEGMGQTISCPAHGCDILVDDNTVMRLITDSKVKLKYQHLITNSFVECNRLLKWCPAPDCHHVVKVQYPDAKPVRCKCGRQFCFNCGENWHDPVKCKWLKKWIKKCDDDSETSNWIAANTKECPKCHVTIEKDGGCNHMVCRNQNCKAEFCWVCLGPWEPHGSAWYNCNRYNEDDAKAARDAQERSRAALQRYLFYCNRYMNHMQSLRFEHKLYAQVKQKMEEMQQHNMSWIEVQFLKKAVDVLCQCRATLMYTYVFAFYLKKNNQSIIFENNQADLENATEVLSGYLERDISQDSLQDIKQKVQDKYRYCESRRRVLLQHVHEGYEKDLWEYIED
Sequence of proteins of U3A human fibrosarcoma cells (4462 proteins detected) (Homo sapiens, UniProt Q16740) (Q16740 57-277): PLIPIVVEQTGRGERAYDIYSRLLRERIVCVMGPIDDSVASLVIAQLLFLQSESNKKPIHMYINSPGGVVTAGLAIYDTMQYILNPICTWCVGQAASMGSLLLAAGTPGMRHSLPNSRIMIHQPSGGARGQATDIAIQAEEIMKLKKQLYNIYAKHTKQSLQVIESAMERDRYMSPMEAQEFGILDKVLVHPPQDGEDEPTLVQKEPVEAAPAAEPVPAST
Sequence of proteins of U3A human fibrosarcoma cells (4462 proteins detected) (Homo sapiens, UniProt Q15599) (Q15599 whole entry): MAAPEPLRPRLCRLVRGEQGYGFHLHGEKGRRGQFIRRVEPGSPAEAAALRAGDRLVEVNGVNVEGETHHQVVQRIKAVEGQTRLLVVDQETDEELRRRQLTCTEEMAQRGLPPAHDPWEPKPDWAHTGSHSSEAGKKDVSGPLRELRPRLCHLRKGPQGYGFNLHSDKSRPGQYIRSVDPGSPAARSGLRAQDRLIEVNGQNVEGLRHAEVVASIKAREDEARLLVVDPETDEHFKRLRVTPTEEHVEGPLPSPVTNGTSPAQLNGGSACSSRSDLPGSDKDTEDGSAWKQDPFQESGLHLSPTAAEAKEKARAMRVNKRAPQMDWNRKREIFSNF
Sequence of proteins of U3A human fibrosarcoma cells (4462 proteins detected) (Homo sapiens, UniProt Q9P032) (Q9P032 whole entry): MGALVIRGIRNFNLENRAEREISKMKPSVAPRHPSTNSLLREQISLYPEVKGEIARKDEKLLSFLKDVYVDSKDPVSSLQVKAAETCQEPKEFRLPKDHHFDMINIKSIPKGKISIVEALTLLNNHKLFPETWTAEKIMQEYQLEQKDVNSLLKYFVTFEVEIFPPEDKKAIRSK
Sequence of proteins of U3A human fibrosarcoma cells (4462 proteins detected) (Homo sapiens, UniProt Q15043) (Q15043 31-492): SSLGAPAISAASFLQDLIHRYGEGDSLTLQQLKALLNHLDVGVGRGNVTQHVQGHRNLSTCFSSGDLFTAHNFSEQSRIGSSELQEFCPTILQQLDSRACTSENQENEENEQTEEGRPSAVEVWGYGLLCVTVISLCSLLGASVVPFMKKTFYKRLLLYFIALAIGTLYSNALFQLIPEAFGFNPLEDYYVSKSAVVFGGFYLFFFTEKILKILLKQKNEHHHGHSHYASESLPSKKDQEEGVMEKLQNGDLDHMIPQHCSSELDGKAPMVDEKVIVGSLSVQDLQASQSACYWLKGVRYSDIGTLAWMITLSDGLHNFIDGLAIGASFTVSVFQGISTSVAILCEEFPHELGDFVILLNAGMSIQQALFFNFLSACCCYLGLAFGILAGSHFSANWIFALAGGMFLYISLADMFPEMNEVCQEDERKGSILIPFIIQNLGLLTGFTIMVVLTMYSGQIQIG

How did the “Log2 (PYR/DMSO)” value [1] turn out when CCc1nc(N)nc(N)c1-c1ccc(Cl)cc1 [pyrimethamine] was run?
Its value is 0.18.

What about the “Log2 (PYR/DMSO)” value [2] of the same molecule?
The value was 0.24.

What about the “Log2 (PYR/DMSO)” value [3] of the same molecule?
Its value is 0.13.

What about the “Log2 (PYR/DMSO)” value [4] of the same molecule?
Its value is 0.16.

And the “Log2 (PYR/DMSO)” value [5]?
Its value is 0.13.

What about the “Log2 (PYR/DMSO)” value [6] of the same molecule?
Its value is 0.16.

What about the “Log2 (PYR/DMSO)” value [7] of the same molecule?
The value was 0.19.

And the “Log2 (PYR/DMSO)” value [8]?
Its value is 0.21.

And the “Log2 (PYR/DMSO), STC1” value [9]?
The value was 0.25.

What about the “Log2 (PYR/DMSO)” value [10] of the same molecule?
Its value is 0.14.

And the “Log2 (PYR/DMSO)” value [11]?
The value was 0.20.

What about the “Log2 (PYR/DMSO)” value [12] of the same molecule?
Its value is 0.14.

What about the “Log2 (PYR/DMSO)” value [13] of the same molecule?
Its value is -0.05.

What about the “Log2 (PYR/DMSO)” value [14] of the same molecule?
Its value is 0.14.

And the “Log2 (PYR/DMSO)” value [15]?
Its value is 0.18.

And the “Log2 (PYR/DMSO)” value [16]?
The value was 0.15.

What about the “Log2 (PYR/DMSO), DDX54” value [17] of the same molecule?
Its value is 0.25.

And the “Log2 (PYR/DMSO)” value [18]?
The value was -0.05.

And the “Log2 (PYR/DMSO)” value [19]?
The value was -0.03.

What about the “Log2 (PYR/DMSO)” value [20] of the same molecule?
Its value is 0.19.

And the “Log2 (PYR/DMSO)” value [21]?
The value was 0.13.

What about the “Log2 (PYR/DMSO)” value [22] of the same molecule?
Its value is 0.15.

And the “Log2 (PYR/DMSO)” value [23]?
The value was 0.18.

What about the “Log2 (PYR/DMSO)” value [24] of the same molecule?
The value was 0.17.

What about the “Log2 (PYR/DMSO)” value [25] of the same molecule?
The value was 0.20.

And the “Log2 (PYR/DMSO)” value [26]?
The value was 0.15.

And the “Log2 (PYR/DMSO)” value [27]?
Its value is 0.17.

What about the “Log2 (PYR/DMSO)” value [28] of the same molecule?
Its value is 0.16.

What about the “Log2 (PYR/DMSO)” value [29] of the same molecule?
Its value is 0.21.

What about the “Log2 (PYR/DMSO)” value [30] of the same molecule?
Its value is 0.19.
